Values of other authors, collected in patent publication US12310973B2, “Administration and dosage of diaminophenothiazines” (WisTa Laboratories Ltd., priority 2016, dated 2025).

Columns and labels:
[1] = tested on: TDP-43 aggregates in SH-SY5Y cells; conditions: 0.05 μM MT; cited from earlier work
[2] = tested on: huntingtin derivative containing a polyglutamine stretch of 102 residues; conditions: tested at 0, 10 and 100 μM; zebrafish; cited from earlier work

## methylthioninium [MT]
[1]
  Reduction in number of TDP-43 aggregates: 50%
[2]
  Formation of aggregates of huntingtin derivative (polyglutamine stretch of 102 residues): prevented the formation of such aggregates in zebrafish in a dose dependent manner
